According to PubChem BioAssay AID2739 (Broad Institute, 2010):
pIC50: −log10 of the molar value. Records with an inconclusive call do not appear. The source made the active and inactive calls.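 Rule for the calls: active = IC50 no more than tenfold above the highest tested concentration; inconclusive = flat fit with activity between 30% and 70%, or an invalid poor fit; inactive = IC50 beyond tenfold over the top concentration.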

biological target: Zinc finger protein mex-5 (Caenorhabditis elegans) (UniProt Q9XUB2); assay: blockers of C. elegans MEX-5/TCR-2 RNA interaction – biochemical, fluorescence polarization, MBP-MEX-5, FITC-TCR2 RNA, dose response (AID 2739); conditions: MBP-MEX-5 / FITC-TCR2 RNA fluorescence polarization, 1 h
Sequence (Q9XUB2 whole entry, looked up): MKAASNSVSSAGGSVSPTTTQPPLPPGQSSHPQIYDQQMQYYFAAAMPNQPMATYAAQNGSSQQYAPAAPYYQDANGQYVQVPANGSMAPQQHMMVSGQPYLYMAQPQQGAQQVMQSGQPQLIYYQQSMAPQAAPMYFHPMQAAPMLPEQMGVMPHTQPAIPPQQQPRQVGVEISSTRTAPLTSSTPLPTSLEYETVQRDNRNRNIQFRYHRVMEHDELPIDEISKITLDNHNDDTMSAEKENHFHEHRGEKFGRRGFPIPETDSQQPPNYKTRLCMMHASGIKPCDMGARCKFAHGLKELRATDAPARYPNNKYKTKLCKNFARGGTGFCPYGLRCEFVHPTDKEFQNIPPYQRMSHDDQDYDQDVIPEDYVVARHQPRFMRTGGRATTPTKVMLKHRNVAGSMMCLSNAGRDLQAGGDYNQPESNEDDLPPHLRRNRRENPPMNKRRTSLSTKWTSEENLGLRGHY

SMILES | pIC50 | IC50
Cc1cnc(C(=O)NNC(=O)c2ccc(Br)cc2)cn1 | 5.97 | –
N=c1c(C(=O)NC2CCCCC2)cc2c(=O)n3ccccc3nc2n1Cc1cccnc1 | – | > 350 µM (inactive)
CCN(CC)c1ccc(/C=C2\C(=O)NC(=S)N(C)C2=O)o1 | – | > 135 µM (inactive)
CC1=C(C(=O)OCc2ccccc2)C(c2ccccc2[N+](=O)[O-])NC(=O)N1C (stereo not drawn) | 4.49 | –
CCCCN(C)C(=O)CCC(=O)NNc1nc2ccccc2c2nc(C)nn12 | 5.38 | –
Cc1ccc(N2C(=O)NC(=O)/C(=C\c3cc(C)n(-c4ccc(C(=O)O)cc4)c3C)C2=O)cc1 | – | > 135 µM (inactive)
N=c1c(C(=O)NC2CCCCC2)cc2c(=O)n3ccccc3nc2n1Cc1ccc(F)cc1 | – | > 135 µM (inactive)
COCCNC(=O)CCC(=O)NNc1nc2ccccc2c2nc(C)nn12 | 5.83 | –
CCOC(=O)C1CCN(C(=O)CCC(=O)NNc2nc3ccccc3c3nc(C)nn23)CC1 | 5.62 | –
O=C(NNC(=O)c1ccccc1[N+](=O)[O-])c1csc(N2CCOCC2)n1 | 5.88 | –
CCOC(=O)c1cc(CC)sc1/N=C/c1c(O)[nH]c(=S)[nH]c1=O | – | > 350 µM (inactive)
CCN(CC)c1ccc(/C=C2\C(=O)NC(=S)N(c3ccc(OC)cc3OC)C2=O)o1 | – | > 135 µM (inactive)
O=c1c(O)cccc2cc(O)c(O)c(O)c12 | 5.69 | –
Cc1nc2ccccc2c(=O)n1/N=C/c1ccc(O)c(O)c1O | 6.03 | –
NC(CO)C(=O)NNCc1ccc(O)c(O)c1O (stereo not drawn) | – | > 135 µM (inactive)
CCOCCCNC(=O)CCC(=O)NNc1nc2ccccc2c2nc(C)nn12 | 5.64 | –
COc1ccc(-c2cn[nH]c2-c2ccc(OCC(=O)NN)cc2O)cc1OC | 5.80 | –
Cn1ncc2c(NNC(=O)Cc3ccccc3)ncnc21 | 5.88 | –
Cc1ncc(CO)c(/C=N/NC(=O)c2cc(Br)ccc2O)c1O | 5.10 | –
CCc1ccc(C(=O)NNC(=O)c2ccc(=O)n(C)n2)cc1 | 5.03 | –
COCCCNC(=O)CCC(=O)NNc1nc2ccccc2c2nc(C)nn12 | 5.79 | –
Cc1nc(N=Nc2ccc(O)cc2)n[nH]1 | 4.79 | –
CCc1ccccc1N1C(=O)/C(=C\c2ccc(N3CCN(C)CC3)o2)C(=O)NC1=S | – | > 135 µM (inactive)
